Six compounds from ChEMBL document CHEMBL1127363, “Structure-activity relationship studies of N-sulfonyl analogs of cocaine: role of ionic interaction in cocaine binding” (J Med Chem, 1994) can be followed below.

For assay [1], the species on record is Rattus norvegicus. The assay can be described thus: Compound was tested to inhibit high affinity uptake of [3H]dopamine into striatal nerve endings (synaptosomes). Type of assay: functional, Brain.
For assay [2], the target named is T1, Sodium-dependent dopamine transporter (Rattus norvegicus, UniProt P23977). Briefly: Binding affinity was tested by measuring its ability to displace [3H]mazindol binding against dopamine transporter (DAT) of rat striatal membranes.
T1 sequence (P23977 whole entry): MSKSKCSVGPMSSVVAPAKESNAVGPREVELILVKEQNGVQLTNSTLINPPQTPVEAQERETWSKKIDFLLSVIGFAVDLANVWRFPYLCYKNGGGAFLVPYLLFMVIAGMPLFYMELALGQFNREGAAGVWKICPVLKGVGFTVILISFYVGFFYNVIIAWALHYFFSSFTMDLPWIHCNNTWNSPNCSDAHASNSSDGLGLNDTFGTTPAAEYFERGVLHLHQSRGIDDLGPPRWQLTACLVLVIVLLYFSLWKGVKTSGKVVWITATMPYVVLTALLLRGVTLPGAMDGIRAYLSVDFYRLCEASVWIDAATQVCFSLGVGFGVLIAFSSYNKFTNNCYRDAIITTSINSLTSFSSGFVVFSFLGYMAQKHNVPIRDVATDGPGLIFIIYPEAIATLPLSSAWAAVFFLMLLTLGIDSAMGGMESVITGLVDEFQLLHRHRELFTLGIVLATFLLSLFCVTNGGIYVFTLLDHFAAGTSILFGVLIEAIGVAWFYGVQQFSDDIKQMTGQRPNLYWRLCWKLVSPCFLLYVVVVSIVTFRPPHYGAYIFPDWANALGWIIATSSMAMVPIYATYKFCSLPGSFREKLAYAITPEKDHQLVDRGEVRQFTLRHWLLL
The species entered for assay [3] is Rattus norvegicus. The assay can be described thus: Compound was tested to inhibit high affinity uptake of [3H]- -dopamine into striatal nerve endings (synaptosomes). Type of assay: functional, Brain.
The species named for assay [4] is Rattus norvegicus. Briefly: Inhibition of high affinity uptake of [3H]- -dopamine into striatal nerve endings (synaptosomes) at 300 uM. It counts as functional. The settings on record: Brain.
The target in assay [5] is T1, Sodium-dependent dopamine transporter. The assay can be described thus: Binding affinity was tested by measuring its ability to displace [3H]-mazindol binding against dopamine transporter (DAT) of rat striatal membranes.
Assay [6] addresses Sodium-dependent dopamine transporter (Rattus norvegicus) (UniProt P23977). The assay can be described thus: Inhibition of [3H]mazindol binding to dopamine transporter (DAT) of rat striatal membranes at 100 uM. Type of assay: cell membranes. The conditions noted are these: Membrane.
Assay [7] is filed under the species Rattus norvegicus. Briefly: Compound was tested to inhibit high affinity uptake of [3H]- -Dopamine into striatal nerve endings (synaptosomes). Type of assay: functional, Brain.

Sequence of Sodium-dependent dopamine transporter (Rattus norvegicus) (P23977 whole entry): as above

The Ki is a dissociation constant, usually derived from enzyme kinetics or from competition with a known ligand. High values mean a looser hold on the target, low ones a stronger hold on the target. As to `COC(=O)[C@@H]1C2CCC(C[C@@H]1OC(=O)c1ccccc1)N2S(C)(=O)=O` (some centres undefined), the Ki in assay [1] is 1.97 µM; in assay [2], 1.29 µM.

For orientation: inhibition means how much of the control response was suppressed. Low readings indicate little suppression, high ones strong suppression. Consider `COC(=O)[C@@H]1C2CCC(C[C@@H]1OC(=O)c1ccccc1)N2S(=O)(=O)c1ccc([N+](=O)[O-])cc1` (some centres undefined), for which the Ki was determined as 18.8 µM in assay [3] and 5.72 µM in assay [5]. Also, the inhibition came to 72% in assay [4] and 80% in assay [6].

For `COC(=O)[C@@H]1C2CCC(C[C@@H]1OC(=O)c1ccccc1)N2S(=O)(=O)C(F)(F)F` (some centres undefined), the Ki worked out at 0.76 µM in assay [3] and 0.33 µM in assay [5].

Take `COC(=O)[C@@H]1C2CC[C@@H](C[C@@H]1OC(=O)c1ccccc1)N2S(=O)(=O)N=C=O`: the Ki worked out at 0.16 µM in assay [7] and 0.12 µM in assay [2].

Consider `COC(=O)[C@@H]1C2CCC(C[C@@H]1OC(=O)c1ccccc1)N2S(=O)(=O)c1ccccc1` (some centres undefined), for which the Ki amounted to 61 µM in assay [3] and 20.8 µM in assay [5].

In the case of `COC(=O)[C@@H]1C2CCC(C[C@@H]1OC(=O)c1ccccc1)N2S(=O)(=O)c1ccc(OC)cc1` (some centres undefined), the Ki in assay [3] came to 16.4 µM; in assay [5], 6.82 µM.
